Experimental data: ChEMBL document CHEMBL4020713, “Identification of novel 2-(benzo[d]isoxazol-3-yl)-2-oxo-N-phenylacetohydrazonoyl cyanide analoguesas potent EPAC antagonists” (Eur J Med Chem, 2017)

Columns and labels:
[1] = molecular target: T1, Rap guanine nucleotide exchange factor 3 (Homo sapiens, UniProt O95398); experiment: Antagonist activity at recombinant human full length EPAC1 assessed as inhibition of EPAC1-mediated Rap1B (1 to 167 residues)-BODIPY GDP nucleotide exchange activity in presence of 20 uM cAMP
T1 sequence (O95398 whole entry): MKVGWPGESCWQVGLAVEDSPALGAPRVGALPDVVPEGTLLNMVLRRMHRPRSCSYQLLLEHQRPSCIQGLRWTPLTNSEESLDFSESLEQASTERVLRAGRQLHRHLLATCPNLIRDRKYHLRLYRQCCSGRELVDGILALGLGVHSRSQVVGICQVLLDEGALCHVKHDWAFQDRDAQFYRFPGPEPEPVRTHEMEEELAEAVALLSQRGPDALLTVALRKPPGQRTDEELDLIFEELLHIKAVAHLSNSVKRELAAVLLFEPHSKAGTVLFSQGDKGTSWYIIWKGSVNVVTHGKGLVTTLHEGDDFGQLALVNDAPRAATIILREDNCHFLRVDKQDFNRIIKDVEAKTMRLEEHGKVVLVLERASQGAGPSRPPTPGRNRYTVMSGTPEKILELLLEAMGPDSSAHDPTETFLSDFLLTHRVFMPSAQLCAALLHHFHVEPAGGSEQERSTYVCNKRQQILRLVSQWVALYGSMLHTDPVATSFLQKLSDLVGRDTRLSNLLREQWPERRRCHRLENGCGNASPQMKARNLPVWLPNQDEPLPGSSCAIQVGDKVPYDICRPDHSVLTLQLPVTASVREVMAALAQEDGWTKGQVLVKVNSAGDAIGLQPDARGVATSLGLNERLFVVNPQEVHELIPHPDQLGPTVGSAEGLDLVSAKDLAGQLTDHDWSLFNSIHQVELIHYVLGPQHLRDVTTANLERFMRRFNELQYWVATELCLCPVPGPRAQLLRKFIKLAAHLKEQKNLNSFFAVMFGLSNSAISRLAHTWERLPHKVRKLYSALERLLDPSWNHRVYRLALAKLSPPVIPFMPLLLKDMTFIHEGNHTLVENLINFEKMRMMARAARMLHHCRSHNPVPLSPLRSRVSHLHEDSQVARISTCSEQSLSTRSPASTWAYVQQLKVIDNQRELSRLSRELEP

[2] = molecular target: T2, Rap guanine nucleotide exchange factor 4 (Mus musculus, UniProt Q9EQZ6); experiment: Antagonist activity at mouse EPAC2 assessed as inhibition of EPAC2-mediated Rap1B (1 to 167 residues)-BODIPY GDP nucleotide exchange activity
T2 sequence (Q9EQZ6 whole entry): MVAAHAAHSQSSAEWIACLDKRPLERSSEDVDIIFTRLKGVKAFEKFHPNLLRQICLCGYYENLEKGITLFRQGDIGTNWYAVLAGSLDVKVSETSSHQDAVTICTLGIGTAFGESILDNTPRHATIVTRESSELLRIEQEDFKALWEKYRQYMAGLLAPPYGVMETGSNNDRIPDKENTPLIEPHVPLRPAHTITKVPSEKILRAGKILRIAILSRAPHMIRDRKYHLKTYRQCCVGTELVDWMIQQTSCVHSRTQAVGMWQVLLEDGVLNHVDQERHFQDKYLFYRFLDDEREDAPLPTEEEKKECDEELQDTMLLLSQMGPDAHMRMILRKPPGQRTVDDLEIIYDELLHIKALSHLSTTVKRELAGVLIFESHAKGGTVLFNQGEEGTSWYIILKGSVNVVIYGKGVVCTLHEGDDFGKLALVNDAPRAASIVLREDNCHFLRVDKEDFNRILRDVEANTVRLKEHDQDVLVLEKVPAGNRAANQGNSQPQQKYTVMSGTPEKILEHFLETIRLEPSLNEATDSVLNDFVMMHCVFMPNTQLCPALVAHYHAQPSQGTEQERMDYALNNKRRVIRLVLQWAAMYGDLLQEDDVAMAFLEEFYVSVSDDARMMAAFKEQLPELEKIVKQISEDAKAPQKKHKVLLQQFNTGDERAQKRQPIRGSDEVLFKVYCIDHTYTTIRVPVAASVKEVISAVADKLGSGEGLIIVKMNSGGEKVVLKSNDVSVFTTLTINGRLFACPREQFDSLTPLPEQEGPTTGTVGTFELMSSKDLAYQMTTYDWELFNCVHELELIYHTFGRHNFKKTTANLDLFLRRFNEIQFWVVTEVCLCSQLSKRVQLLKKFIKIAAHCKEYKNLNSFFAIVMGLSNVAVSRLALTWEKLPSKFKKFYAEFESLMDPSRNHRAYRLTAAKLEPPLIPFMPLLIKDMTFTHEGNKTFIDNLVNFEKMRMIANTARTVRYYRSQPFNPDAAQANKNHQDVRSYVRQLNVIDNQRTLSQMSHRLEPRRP

[3] = Ratio of IC50 for recombinant human full length EPAC1 to IC50 for mouse EPAC2

Row | Ratio IC50 [3] | SMILES | IC50 [1] | IC50 [2]
1 | – | N#C/C(=N\Nc1ccc(Cl)c(C(F)(F)F)c1)C(=O)c1cc(-c2ccc(Cl)cc2)on1 | 7.8 µM | –
2 | – | COc1ccc(-c2cc(C(=O)/C(C#N)=N/Nc3cccc(Cl)c3)no2)cc1 | 11.4 µM | –
3 | – | CC(C)(C)c1cc(C(=O)/C(C#N)=N/Nc2cc(Cl)c(Cl)c(Cl)c2)no1 | 2.7 µM | –
4 | – | N#C/C(=N\Nc1ccc(Cl)c(C(F)(F)F)c1)C(=O)c1cc(-c2ccccc2)on1 | – | 2.3 µM
5 | – | N#C/C(=N\Nc1cc(Cl)cc(C(F)(F)F)c1)C(=O)c1noc2ccccc12 | 4.6 µM | 2.2 µM
6 | – | N#C/C(=N\Nc1cc(C(F)(F)F)cc(C(F)(F)F)c1)C(=O)c1cc(-c2ccccc2)on1 | 7.2 µM | 3.3 µM
7 | – | CC(C)(C)c1ccc(-c2cc(C(=O)/C(C#N)=N/Nc3cc(C(F)(F)F)cc(C(F)(F)F)c3)no2)cc1 | 11.9 µM | –
8 | – | N#C/C(=N\Nc1cc(F)cc(Cl)c1)C(=O)c1noc2ccccc12 | 18.9 µM | –
9 | – | COc1ccc(-c2cc(C(=O)/C(C#N)=N/Nc3cc(C(F)(F)F)cc(C(F)(F)F)c3)no2)cc1 | 5.6 µM | 7 µM
10 | – | CC(C)(C)c1ccc(-c2cc(C(=O)/C(C#N)=N/Nc3cccc(Cl)c3)no2)cc1 | 8.6 µM | –
11 | – | N#C/C(=N\Nc1cc(C(F)(F)F)cc(C(F)(F)F)c1)C(=O)c1noc2ccccc12 | 6.7 µM | –
12 | – | N#C/C(=N\Nc1ccc(F)c(Cl)c1)C(=O)c1noc2ccccc12 | 8.5 µM | –
13 | – | N#C/C(=N\Nc1ccc(Cl)c(C(F)(F)F)c1)C(=O)c1noc2ccccc12 | 2.7 µM | 1.9 µM
14 | – | N#C/C(=N\Nc1cccc(Cl)c1)C(=O)c1cc(-c2ccco2)on1 | 9.9 µM | –
15 | – | COc1ccc(-c2cc(C(=O)/C(C#N)=N/Nc3ccc(Cl)c(C(F)(F)F)c3)no2)cc1 | – | 4.5 µM
16 | – | N#C/C(=N\Nc1cccc(Cl)c1)C(=O)c1noc2ccccc12 | 13.2 µM | –
17 | – | CC(C)(C)c1ccc(-c2cc(C(=O)/C(C#N)=N/Nc3ccc(Cl)c(C(F)(F)F)c3)no2)cc1 | 7.3 µM | 2.2 µM
18 | – | N#C/C(=N\Nc1ccc(C(F)(F)F)c(Cl)c1)C(=O)c1noc2ccccc12 | 3 µM | 2.2 µM
19 | – | N#C/C(=N\Nc1ccc(Cl)c(C(F)(F)F)c1)C(=O)c1cc(-c2ccco2)on1 | 4.2 µM | 2.3 µM
20 | – | N#C/C(=N\Nc1cc(Cl)cc(C(F)(F)F)c1)C(=O)c1cc(-c2ccccc2)on1 | 9.5 µM | –
21 | – | N#C/C(=N\Nc1cccc(Cl)c1)C(=O)c1cc(-c2ccccc2)on1 | > 150 µM | –
22 | – | N#C/C(=N\Nc1cc(Cl)cc(C(F)(F)F)c1)C(=O)c1cc(-c2ccco2)on1 | 3.6 µM | 2.2 µM
23 | 2.5 | CC(C)(C)c1cc(C(=O)/C(C#N)=N/Nc2cccc(Cl)c2)no1 | – | 4.4 µM
24 | – | CC(C)(C)c1ccc(-c2cc(C(=O)/C(C#N)=N/Nc3ccc(C(F)(F)F)c(Cl)c3)no2)cc1 | 9 µM | –
